Results: PubChem BioAssay AID1645848
In brackets after ≈: the same amount, converted by molar mass.

Conditions: buffer; pH 7.4; 6.0 h; 150.0 µM

solubility kinetic [µg/mL]	SMILES
4.39 (≈ 13.3 µM)	O=S(=O)(c1ccccc1)N1CCCCC1CCc1ccccc1 (stereo unspecified)
26 (≈ 106 µM)	Nc1nc2c(s1)C(c1ccccc1)CC(=O)N2 (stereo unspecified)
> 67	Cc1cc(NS(=O)(=O)c2ccc(N(C)C(=O)Cc3ccc(Cl)c(Cl)c3)cc2)no1
> 43	CC(C)CC(C)NC(=O)c1noc(-c2ccc[nH]c2=O)n1 (stereo unspecified)
< 1	O=c1cc(-c2ccccc2)oc2cc(O)cc(O)c12
12 (≈ 29 µM)	Cc1ccnc(NC(=S)N2CCN(c3ncc(C(F)(F)F)cc3Cl)CC2)c1
> 86	COCCn1ccc2c(C3=CCOCC3)nc(-c3ccc4c(c3)CNC4=O)cc21
1.15 (≈ 2.6 µM)	Cc1noc(C)c1C(=O)N1CCC2(CCCN(C(c3ccccc3)c3ccccc3)C2)CC1
10.4 (≈ 23.9 µM)	CCN1C(=O)c2ccccc2S(=O)c2ccc(C(=O)NCc3ccc(OC)cc3)cc21 (stereo unspecified)
> 50	COc1ccccc1-n1cnc2cc(C(=O)N3CCCCC3)ccc21
< 1	CCOc1cc(CCNC(=O)c2cc3sccc3n2Cc2ccccc2)cc(F)c1OCC
< 1	Cc1ccc(C(=O)N2CCc3cc(-c4nc(NC(=O)Cc5ccc6c(c5)OCO6)sc4C)ccc32)cc1
> 68	COCCOc1cnc2ccn([C@H](C)c3nnc4c(F)cc(-c5cnn(C)c5)cn34)c(=O)c2c1
11.6 (≈ 29.4 µM)	Cc1cc(C)nc(NC(=S)N2CCN(c3cccc(OC(F)F)c3)CC2)c1
47.2 (≈ 100 µM)	O=S(=O)(Nc1ccc(C2CCNCC2)cc1)c1ccc(NCc2cccc(Cl)c2O)cc1
< 1	Cc1ccc(S(=O)(=O)Nc2cc3c(cc2C(=O)Nc2nc(-c4ccccc4)cs2)OCO3)cc1
< 1	O=C1CCc2ccc(OCCCCN3CCN(c4cccc(Cl)c4Cl)CC3)cc2N1
> 77	CCc1oc2ccccc2c1C(=O)c1cc(I)c(O)c(I)c1
> 46	O=C(Nc1ccc(C(=O)N2CCCC2)cc1)c1ccccc1F
< 1	CC(=O)OCCN1C(=O)c2c(C)nc3ccc(S(=O)(=O)N4CCOCC4)cc3c2C1=O
< 1	Fc1ccc(Nc2nc(-c3ccncc3)ncc2-c2ccccc2)cc1F
2.67 (≈ 9.01 µM)	Cc1ccc(-c2ccnc(N3CCC(C(N)=O)CC3)n2)cc1
< 1	COc1cc(-c2nc(Cn3nnc(C(=O)Nc4cc(C)cc(C)c4)c3C)c(C)o2)cc(OC)c1OC
9.06 (≈ 28 µM)	COc1ccc(C2=Nn3c(nnc3-c3ccncc3)SC2)cc1
< 1	O=C(Nc1ccc(Br)cc1)c1ccc(F)c(S(=O)(=O)NC2CCCCCC2)c1

solubility kinetic [µg/mL]	SMILES
1.19 (≈ 2.67 µM)	CCc1ccc(NC(=O)c2[nH]c(C)c(C(C)=O)c2C)cc1[S+](=O)([O-])N1CCCCCC1
< 1	Brc1ccc(-c2csc(N3CCCCC3)n2)cc1
< 1	COc1ccc(CN2CCc3nc(N4CCN(c5ccc(F)cc5)CC4)ncc3C2)c(OC)c1OC
< 1	Cc1ccc(-c2cc3c(nn2)-c2ccccc2C3=O)cc1
> 62	CCOc1ccc(C2c3c(oc4ccc(C)cc4c3=O)C(=O)N2CCCN(C)C)cc1 (stereo unspecified)
1.18 (≈ 3.58 µM)	O=c1cc(CSc2ccc(Cl)cc2)nc(-c2ccccn2)[nH]1
> 63	Cc1cc(NS(=O)(=O)c2ccc(NC(=O)Cc3ccc(F)c(Cl)c3)cc2)no1
< 1	Oc1ccc(C(=S)N2CCN(c3cccc(Cl)c3)CC2)cc1
34.7 (≈ 96.4 µM)	NC(=O)C1CCN(c2nc(-c3ccc4c(c3)OCCCO4)cs2)CC1
< 1	N#Cc1ccc(NS(=O)(=O)c2ccc(NC(=O)Cc3ccc(Cl)c(Cl)c3)cc2)cc1
31.1 (≈ 86 µM)	COc1ccc(CN2CCNc3cc(Nc4ccccc4)ncc3C2)cn1
< 1	O=C(NC1CCCc2c1cnn2-c1ccc(F)cc1F)c1ccc(C2(C(F)(F)F)N=N2)cc1 (stereo unspecified)
37.2 (≈ 94 µM)	O=S(=O)(Nc1nccs1)c1ccc(NCc2cc(Cl)ccc2O)cc1
14.2 (≈ 37.6 µM)	COC(=O)CNC(=O)c1nc(-c2ccc(Cl)cc2Cl)c2cnccn12
< 1	CC1=C(C(=O)Nc2nncs2)C(c2ccccc2Br)N=C(Nc2nc3ccccc3o2)N1 (stereo unspecified)
> 46	CN1CCCC(CC2c3ccccc3Sc3ccccc32)C1.Cl (stereo unspecified)
< 1	O=C(Nc1ccc(S(=O)(=O)Nc2nccs2)cc1)c1ccc(-c2ccccc2)cc1
< 1	CCOC(=O)c1ccc2c(c1)c(C(C)=O)c(C)n2-c1ccc(OC)cc1
58.4 (≈ 114 µM)	CC(C)(C)c1ccc(S(=O)(=O)c2cnc(SCC(=O)Nc3ccc(F)c(Cl)c3)[nH]c2=O)cc1
2.06 (≈ 5.34 µM)	Nc1nc2c(s1)C(c1ccccc1OCc1ccccc1Cl)CC(=O)N2 (stereo unspecified)
24.8 (≈ 68.4 µM)	Cc1cc(C)nc(NC(=S)N2CCN(c3ccc(F)cc3F)CC2)c1
45.3 (≈ 124 µM)	Fc1ccc(CN2CCNc3cc(Nc4ccccc4)ncc3C2)cc1F
> 64	Cc1ccc2oc3c(c(=O)c2c1)C(c1cccc(O)c1)N(CCCN1CCOCC1)C3=O (stereo unspecified)
< 1	O=S(=O)(c1ccccc1)c1nnn2c1nc(NCc1cccs1)c1sccc12
< 1	N#Cc1nc(-c2cccc3ccccc23)oc1Nc1ccccc1

solubility kinetic [µg/mL]	SMILES
> 63	Cc1ccc(S(=O)(=O)c2cnc(SC(C)C(=O)Nc3ccccc3)[nH]c2=O)cc1 (stereo unspecified)
> 61	COc1ccc(-n2nc(C3CCN(C(=O)Cc4ccc(F)cc4)CC3)[nH]c2=O)cc1
7.02 (≈ 24.7 µM)	O=C(O)c1cccc(-c2noc(-c3ccccc3F)n2)c1
4.37 (≈ 12.6 µM)	CC(=O)N1CCc2cc(S(=O)(=O)NCCC3=CCCCC3)ccc21
< 1	Fc1cc(Nc2nc(-c3ccncc3)nc3ccccc23)ccc1-c1cc(F)c(F)c(F)c1
> 43	c1ccc2c(N3CCOCC3)nc(-c3ccncc3)nc2c1
> 39	O=C1Nc2ccccc2/C1=C/c1cccc(C(=O)O)c1
2.43 (≈ 7.8 µM)	c1cc(-c2cc(-c3ccncc3)c3cncn3c2)c2[nH]ncc2c1
1.56 (≈ 2.8 µM)	COc1ccc2[nH]cc(CCNC(=O)c3cnn(-c4ccc(C)cc4)c3C3CCN(C(=O)OC(C)(C)C)CC3)c2c1
0.226 (≈ 0.596 µM)	Fc1ccc(-c2csc3ncnc(NCc4ccc5c(c4)OCO5)c23)cc1
< 1	Cc1ccnc(NC(=O)C2CC(=O)N(c3n[nH]c4cc(Br)ccc34)C2)c1 (stereo unspecified)
1.7 (≈ 5.1 µM)	NC(=O)C1CCN(c2nc(-c3ccc([N+](=O)[O-])cc3)cs2)CC1
1.16 (≈ 2.68 µM)	CC(=O)c1ccc(N2CCN(S(=O)(=O)c3cc4c(cc3Cl)NC(=O)C4)CC2)cc1
< 1	Cc1ccc(S(=O)(=O)Nc2ccc(C(=O)Nc3ncc(-c4ccccc4)s3)cc2)cc1
6.08 (≈ 16.6 µM)	COc1c(Cl)cc2c([nH]c3cnccc32)c1NC(=O)c1cccnc1C
< 1	Cc1cccc(S(=O)(=O)c2cn(Cc3ccccc3)c3cc(N4CCCC(C)C4)c(F)cc3c2=O)c1 (stereo unspecified)
32.9 (≈ 66.9 µM)	CC(C)C(=O)N1CCc2ccc(OCc3nc(C(=O)N4CCCC4)co3)cc2C1c1cccc(F)c1 (stereo unspecified)
6.09 (≈ 19.9 µM)	O=C(Nc1nnc(-c2cccs2)o1)c1ccc(Cl)cc1
< 1	Cn1c2ccccc2c2c3c(c4c5ccccc5n(CCC#N)c4c21)CNC3=O
6.49 (≈ 15.4 µM)	CCOC(=O)c1cnc2ccc(-c3cncc(NS(=O)(=O)c4ccccc4)c3)cn12
4.07 (≈ 10.7 µM)	Cc1nn2c(c1-c1ccccc1-c1ccccc1)N(Cc1ccccc1)CCC2
< 1	CN(C)c1cc(-c2nc(Nc3ccc(F)c(F)c3)c3ccccc3n2)ccn1
< 1	O=C(NC(c1ccccc1)c1cc(Cl)c2cccnc2c1O)c1cccnc1 (stereo unspecified)
14.6 (≈ 48.3 µM)	Cc1ccc(-c2nnc(N3CCC(C(N)=O)CC3)s2)cc1
> 63	Cc1cc(NS(=O)(=O)c2ccc(NC(=O)Cc3ccc(Cl)c(F)c3)cc2)no1

solubility kinetic [µg/mL]	SMILES
> 89	CCN(c1cc(C#CCN2CCOCC2)cc(C(=O)NCc2c(C)cc(C)[nH]c2=O)c1C)C1CCC(N(C)CCOC)CC1 (stereo unspecified)
2.11 (≈ 5.05 µM)	CC(=O)c1c(C)[nH]c(C(=O)Nc2cccc(S(=O)(=O)N3CCCCCC3)c2)c1C
50.3 (≈ 121 µM)	COc1ccc(-n2nc(C)c([C@@H]3C=C[C@@H](NCc4ccc(N(C)C)cc4)C3)c2C)cc1
2.51 (≈ 5.69 µM)	COc1cc(O)c([C@H](CC(=O)N2CC(C)CC(C)C2)c2ccc3c(c2)OCO3)c(OC)c1 (stereo partly specified)
< 1	CC(C)(C)c1ccc(C(=O)N2CC(=O)Nc3ccc(F)cc3C2c2ccc(F)cc2)cc1 (stereo unspecified)
1.03 (≈ 3.52 µM)	Cc1ccc(-c2[nH]n3c(=O)c4c(nc3c2C)CCCC4)cc1
> 68	CNC(=O)c1nn(C)c2c1C(C)(C)Cc1cnc(Nc3ccc(N4CCN(C)CC4)cc3)nc1-2
< 1	Cc1c(C(=O)NN2CCCCC2)nn(-c2ccc(Cl)cc2Cl)c1-c1ccc(Cl)cc1
< 1	CC1=C(C(=O)Nc2ccc(Cl)cc2)C(c2ccccc2C)n2ncc(C(=O)Nc3ccc(C)cc3)c2N1 (stereo unspecified)
3.16 (≈ 7.87 µM)	O=C1CCCC2=C1C(c1[nH]ncc1Cl)N=C(Nc1nc3cc(F)ccc3o1)N2 (stereo unspecified)
< 1	COc1cccc(CNc2ccc([S+](=O)([O-])Nc3cc4ccccc4s3)cc2)c1O
< 1	COc1cccc(C(=O)Nc2cccc(OCc3cc(=O)n4cccc(C)c4n3)c2)c1
> 37	CS(=O)(=O)c1ccc(-c2cnc(NCc3ccco3)n3cnnc23)cc1
34.4 (≈ 112 µM)	Cc1[nH]c2ccccc2c1CN1CCN(c2ccccn2)CC1
> 53	O=S(=O)(Nc1nccs1)c1ccc(NCc2ccccc2O)cc1
< 1	O=C(c1ccncc1)N1CCC2(CCCN(C(c3ccccc3)c3ccccc3)C2)CC1
> 48	COc1ccc2c(c1)N(C[C@H](C)CN(C)C)c1ccccc1S2
> 70	COc1cc2c(Nc3ccc(Br)cc3F)ncnc2cc1OCC1CCN(C)CC1
< 1	CC(=O)Nc1cccc(-c2csc(Nc3cc(C)ccn3)n2)c1
< 1	O=S(=O)(Nc1nccs1)c1ccc(NCc2cccc(Cl)c2Cl)cc1
< 1	CCn1c(=NC(=O)c2ccc(S(=O)(=O)N3CCCCC3)cc2)sc2cccc(OC)c21
> 42	CN(C)CCN1C(=O)c2cccc3cc(N)cc(c23)C1=O

SMILES	solubility kinetic [µg/mL]
CC(C)(C)C(O)C(Oc1ccc(Cl)cc1)n1cncn1 (stereo unspecified)	> 44
N#Cc1cccc(NC(=O)c2sc3nc4c(cc3c2N)N2CCC4CC2)c1	5.07 (≈ 13.5 µM)
COC(=O)c1ccc(O)c2ncc(N3CCN(C)CC3)cc12	> 30
CCOc1ccc(CCNC(=O)c2cc3cccnc3n2Cc2cccc(C)c2)cc1OCC	< 1
